Test results reported in patent US20160151335A1, “METHODS OF MODULATING CFTR ACTIVITY” (PROTEOSTASIS THERAPEUTICS, INC., priority 2013, published 2016).

Target: T1, ΔF508-CFTR (Homo sapiens, UniProt P13569, DEL508-508)
T1 construct: Primary lung epithelial cells (hBEs) homozygous for the Cystic Fibrosis-causing ΔF508 mutation; endogenous in cells; host or cells: primary lung (bronchial) epithelial cells (hBE) homozygous for ΔF508, differentiated at an air-liquid interface
Assay: hBE equivalent current (Ieq) assay, AUC of equivalent chloride current
Format: cell-based
Details: compound at 10 uM, 24 h, primary hBE cells homozygous ΔF508; AUC increase relative to VX-809 at 1 uM
Experimental: Primary lung epithelial cells homozygous for the Cystic Fibrosis-causing ΔF508 mutation were differentiated for a minimum of 4 weeks in an air-liquid interface on Costar 24 well HTS filter plates prior to the equivalent current (Ieq) measurements. Cells were apically mucus-washed for 30 minutes 24 h prior to treatment with compounds. The basolateral media was removed and replaced with media containing the compound of interest diluted to its final concentration from DMSO stocks. Treated cells were incubated at 37° C. and 5% CO2 for 24 hours. At the end of the treatment period, the media was changed to the Ieq experimental solution for 30 minutes before the experiment and plates are maintained in a CO2-free incubator during this period. The plates containing the cells were then placed in pre-warmed heating blocks at 36° C.±0.5 for 15 minutes before measurements are taken. The transepithelial voltage (VT) and conductance (GT) were measured using a custom 24 channel current clamp (TECC-24) with 24 well electrode manifold. The Ieq assay measurements were made following additions with standardized time periods: • 1. The baseline VT and GT values were measured for approximately 20 minutes. • 2. Benzamil was added to block ENaC for 15 minutes. • 3. Forskolin plus VX-770 were added to maximally activate ΔF508-CFTR for 27 minutes. • 4. Bumetanide was added to inhibit the NaK2Cl cotransporter and shut-off secretion of chloride. The activity data captured was the area under the curve (AUC) for the traces of the equivalent chloride current. The AUC was collected from the time of the forskolin/VX-770 addition until the inhibition by bumetanide addition. Correction in response to compound treatment was scored as the increase in the AUC for compound-treated samples over that of vehicle-treated samples. (++ indicates activity ≧25% run at 10 uM of VX-809 at 1 uM, + indicates activity 10 to ≦25% run at 10 uM of VX-809 at 1 uM.

T1 sequence (P13569 with tags, fused parts or gaps DEL508-508): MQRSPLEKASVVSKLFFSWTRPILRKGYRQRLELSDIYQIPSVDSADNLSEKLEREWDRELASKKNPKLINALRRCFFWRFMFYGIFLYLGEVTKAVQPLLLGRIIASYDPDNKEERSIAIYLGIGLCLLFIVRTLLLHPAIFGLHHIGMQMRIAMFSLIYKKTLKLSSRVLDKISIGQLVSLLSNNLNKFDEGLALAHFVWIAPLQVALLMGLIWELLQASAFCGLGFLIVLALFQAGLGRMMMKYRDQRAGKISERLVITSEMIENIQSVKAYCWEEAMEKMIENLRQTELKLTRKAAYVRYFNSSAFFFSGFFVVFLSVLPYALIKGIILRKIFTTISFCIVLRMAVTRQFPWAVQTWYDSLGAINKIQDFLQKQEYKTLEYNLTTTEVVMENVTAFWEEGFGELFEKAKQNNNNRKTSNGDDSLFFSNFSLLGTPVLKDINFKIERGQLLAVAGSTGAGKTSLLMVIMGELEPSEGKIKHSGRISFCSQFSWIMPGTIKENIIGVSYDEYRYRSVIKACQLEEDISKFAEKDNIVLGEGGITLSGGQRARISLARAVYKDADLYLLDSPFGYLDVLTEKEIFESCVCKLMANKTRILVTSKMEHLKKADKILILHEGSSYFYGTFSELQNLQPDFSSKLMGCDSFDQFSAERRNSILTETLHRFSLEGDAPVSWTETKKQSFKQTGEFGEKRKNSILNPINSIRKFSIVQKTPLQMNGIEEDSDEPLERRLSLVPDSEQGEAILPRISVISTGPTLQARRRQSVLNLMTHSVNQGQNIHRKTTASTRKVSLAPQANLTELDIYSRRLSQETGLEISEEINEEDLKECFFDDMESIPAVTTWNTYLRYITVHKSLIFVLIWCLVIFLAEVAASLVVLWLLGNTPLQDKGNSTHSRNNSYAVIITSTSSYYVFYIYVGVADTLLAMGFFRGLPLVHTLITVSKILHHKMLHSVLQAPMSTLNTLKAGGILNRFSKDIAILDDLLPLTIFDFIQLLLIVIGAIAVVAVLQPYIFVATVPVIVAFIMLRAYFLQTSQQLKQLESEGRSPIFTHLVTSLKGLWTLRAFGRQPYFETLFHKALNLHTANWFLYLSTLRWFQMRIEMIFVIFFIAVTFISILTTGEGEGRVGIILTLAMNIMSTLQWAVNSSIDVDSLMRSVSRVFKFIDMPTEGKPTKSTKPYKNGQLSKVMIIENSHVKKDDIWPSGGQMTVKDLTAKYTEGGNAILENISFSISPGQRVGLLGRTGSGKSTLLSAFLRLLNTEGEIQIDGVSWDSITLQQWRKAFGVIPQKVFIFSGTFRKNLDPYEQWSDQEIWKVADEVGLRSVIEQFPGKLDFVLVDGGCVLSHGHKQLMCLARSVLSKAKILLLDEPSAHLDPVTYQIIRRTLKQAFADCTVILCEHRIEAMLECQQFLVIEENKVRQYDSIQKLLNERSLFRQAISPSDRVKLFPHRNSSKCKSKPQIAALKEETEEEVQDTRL

Structure (SMILES) | Ieq hBE Activity
O=C(NCC1CCCO1)c1cc(-c2ccccc2)on1 (stereo not shown) [Compound 1] | ++ (++ indicates activity ≧25% run at 10 uM of VX-809 at 1 uM)
O=C(NC[C@@H]1CCCO1)c1cc(-c2ccccc2)on1 [Compound 2, (S)-5-phenyl-N-((tetrahydrofuran-2-yl)methyl)isoxazole-3-carboxamide] | ++ (++ indicates activity ≧25% run at 10 uM of VX-809 at 1 uM)
O=C(NCCN1CCOCC1)c1cc(-c2ccccc2)on1 [Compound 4] | ++ (++ indicates activity ≧25% run at 10 uM of VX-809 at 1 uM)
O=C(NCCN1CCOC1=O)c1cc(-c2ccccc2)on1 [Compound 5] | ++ (++ indicates activity ≧25% run at 10 uM of VX-809 at 1 uM)
O=C(NCCc1cnccn1)c1cc(-c2ccccc2)on1 [Compound 6] | ++ (++ indicates activity ≧25% run at 10 uM of VX-809 at 1 uM)
O=C(NCC(O)c1ccncc1)c1cc(-c2ccccc2)on1 (stereo not shown) [Compound 7] | ++ (++ indicates activity ≧25% run at 10 uM of VX-809 at 1 uM)
Cc1nnc(CCNC(=O)c2cc(-c3ccccc3)on2)s1 [Compound 8] | ++ (++ indicates activity ≧25% run at 10 uM of VX-809 at 1 uM)
CCn1nc(C)c(CCNC(=O)c2cc(-c3ccccc3)on2)c1C [Compound 10] | + (+ indicates activity 10 to ≦25% run at 10 uM of VX-809 at 1 uM)
COCc1noc(CCNC(=O)c2cc(-c3ccccc3)on2)n1 [Compound 11] | ++ (++ indicates activity ≧25% run at 10 uM of VX-809 at 1 uM)
O=C(NCCc1noc(C2CCCC2)n1)c1cc(-c2ccccc2)on1 [Compound 12] | ++ (++ indicates activity ≧25% run at 10 uM of VX-809 at 1 uM)
O=C(NCCCN1CCOCC1)c1cc(-c2ccccc2)on1 [Compound 13] | ++ (++ indicates activity ≧25% run at 10 uM of VX-809 at 1 uM)
O=C(NCCCN1CCOCC1)c1cc(-c2cccs2)on1 [Compound 14] | ++ (++ indicates activity ≧25% run at 10 uM of VX-809 at 1 uM)
O=C(NCCCn1ccnc1)c1cc(-c2ccc(F)cc2)on1 [Compound 15] | + (+ indicates activity 10 to ≦25% run at 10 uM of VX-809 at 1 uM)
Cn1c(CCCNC(=O)c2cc(-c3ccccc3)on2)nc2ccccc21 [Compound 17] | + (+ indicates activity 10 to ≦25% run at 10 uM of VX-809 at 1 uM)
COCCNC(=O)c1cc(-c2ccc(F)cc2)on1 [Compound 19] | ++ (++ indicates activity ≧25% run at 10 uM of VX-809 at 1 uM)
O=C(NCc1ccco1)c1cc(-c2ccccc2)on1 [Compound 20] | + (+ indicates activity 10 to ≦25% run at 10 uM of VX-809 at 1 uM)
Cn1ccc(CNC(=O)c2cc(-c3ccccc3)on2)n1 [Compound 27] | + (+ indicates activity 10 to ≦25% run at 10 uM of VX-809 at 1 uM)
CCCn1cc(CNC(=O)c2cc(-c3ccccc3)on2)cn1 [Compound 30] | + (+ indicates activity 10 to ≦25% run at 10 uM of VX-809 at 1 uM)
COCc1noc(CNC(=O)c2cc(-c3ccccc3)on2)n1 [Compound 35] | ++ (++ indicates activity ≧25% run at 10 uM of VX-809 at 1 uM)
CSCc1noc(CNC(=O)c2cc(-c3ccccc3)on2)n1 [Compound 36] | ++ (++ indicates activity ≧25% run at 10 uM of VX-809 at 1 uM)
O=C(NCc1ccccn1)c1cc(-c2ccccc2)on1 [Compound 41] | + (+ indicates activity 10 to ≦25% run at 10 uM of VX-809 at 1 uM)
O=C(NCC1CCCC1)c1cc(-c2ccccc2)on1 [Compound 51] | + (+ indicates activity 10 to ≦25% run at 10 uM of VX-809 at 1 uM)
O=C(NCC1CCOC1)c1cc(-c2ccccc2)on1 (stereo not shown) [Compound 52] | ++ (++ indicates activity ≧25% run at 10 uM of VX-809 at 1 uM)
O=C(NCCC1CCOCC1)c1cc(-c2ccccc2)on1 [Compound 90] | ++ (++ indicates activity ≧25% run at 10 uM of VX-809 at 1 uM)
CN1CCN(CCNC(=O)c2cc(-c3ccccc3)on2)CC1 [Compound 92] | ++ (++ indicates activity ≧25% run at 10 uM of VX-809 at 1 uM)
